Here are results for three compounds from patent publication US8163768B2, “1,4-dihydropyridine-fused heterocycles, process for preparing the same, use and compositions containing them” (Aventis Pharma S.A.., priority 2005, dated 2012).

The target of one data set is T1, Aurora2 (Aurora-A) (Homo sapiens, UniProt O14965).
T1 construct: Aurora-A: the full length recombinant protein including an N-terminal poly-histidine tail has been expressed in E. coli; poly-histidine (N); made in house; host or cells: E. coli
T1 sequence (O14965 1-403): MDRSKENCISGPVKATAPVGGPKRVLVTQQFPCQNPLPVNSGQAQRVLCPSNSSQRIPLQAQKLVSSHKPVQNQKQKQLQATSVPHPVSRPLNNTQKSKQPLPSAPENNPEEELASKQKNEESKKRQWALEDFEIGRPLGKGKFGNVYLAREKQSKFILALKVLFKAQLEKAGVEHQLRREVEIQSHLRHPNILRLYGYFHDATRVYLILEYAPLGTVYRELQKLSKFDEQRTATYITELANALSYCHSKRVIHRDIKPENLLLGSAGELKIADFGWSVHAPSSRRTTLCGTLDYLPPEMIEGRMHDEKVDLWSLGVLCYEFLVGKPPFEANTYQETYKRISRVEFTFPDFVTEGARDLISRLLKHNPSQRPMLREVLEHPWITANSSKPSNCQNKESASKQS
In words: Aurora 2 (Aurora A) kinase radioactivity scintillation assay using nickel chelate Flash plates. It is filed as biochemical. As to conditions: 10 nM Aurora-A, 500 nM NuMA substrate, 1 μM ATP with [33P] ATP, 10 mM MgCl2, 30 minutes, 37° C. An outline of the steps:
(§1)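 10 nM Aurora-B or Aurora-A with 500 nM NuMA-His substrate, 1 μM ATP plus [³³P]ATP, in 50 mM NaCl, 1 mM DTT and 5 mM (B) or 10 mM (A) MgCl2, 30 min at 37° C on nickel-chelate plates. Incorporated ³³P counted after washing, background-subtracted; IC50 fitted from % inhibition versus concentration.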

Another data set concerns the target T2, Aurora1 (Aurora-B) (Homo sapiens, UniProt Q96GD4).
T2 construct: Aurora-B: the full length protein (His tagged in N-terminal) has been co expressed in SF9 cells; poly-histidine (N); made in house; host or cells: SF9 cells
Briefly: Aurora 1 (Aurora B) kinase radioactivity scintillation assay using nickel chelate Flash plates. It is filed as biochemical. As to conditions: 10 nM Aurora-B (co expressed with C3 fragment of INCEP), 500 nM NuMA substrate, 1 μM ATP with [33P] ATP, 5 mM MgCl2, 30 minutes, 37° C. Put shortly:
as §1

T2 sequence (Q96GD4 whole entry, species assumed): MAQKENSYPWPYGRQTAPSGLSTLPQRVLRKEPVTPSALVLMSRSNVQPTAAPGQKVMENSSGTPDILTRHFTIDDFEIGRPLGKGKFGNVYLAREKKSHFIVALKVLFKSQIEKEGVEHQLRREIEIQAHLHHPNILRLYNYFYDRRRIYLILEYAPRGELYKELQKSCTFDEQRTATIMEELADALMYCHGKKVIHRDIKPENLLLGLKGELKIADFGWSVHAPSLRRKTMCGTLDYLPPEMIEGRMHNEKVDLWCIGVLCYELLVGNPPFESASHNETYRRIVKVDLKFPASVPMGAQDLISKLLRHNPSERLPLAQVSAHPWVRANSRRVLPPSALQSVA
T2 sequence (Q9NQS7 821-918 partner limits assumed, species assumed): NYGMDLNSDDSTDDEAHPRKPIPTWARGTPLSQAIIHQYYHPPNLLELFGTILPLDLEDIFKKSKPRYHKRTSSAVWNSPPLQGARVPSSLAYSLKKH

Consider `CCOC(=O)c1[nH]cc2c1NC1=C(C(=O)CNC1)C2c1ccc(Sc2nc3cc(OC)ccc3[nH]2)o1` (stereo not drawn) [Example 111, 9-[5-(6-Methoxy-1H-benzimidazol-2-ylsulfanyl)-furan-2-yl]-8-oxo-4,5,6,7,8,9-hexahydro-2H-pyrrolo[3,4-b][1,7]naphthyridine-3-carboxylic acid ethyl ester], for which the melting point came out at 248 °C. In addition, the IC50 on Aurora2 (Aurora-A) is 1250 nM. For the same compound, on Aurora1 (Aurora-B), the IC50 is 501 nM.
For `CCOC(=O)c1[nH]cc2c1NC1=C(C(=O)CNC1)C2c1ccc(Sc2nc3cc(F)c(F)cc3[nH]2)o1` (stereo not drawn) [Example 115, 9-[5-(5,6-Difluoro-1H-benzimidazol-2-ylsulfanyl)-furan-2-yl]-8-oxo-4,5,6,7,8,9-hexahydro-2H-pyrrolo[3,4-b][1,7]naphthyridine-3-carboxylic acid ethyl ester], the melting point fell in the range of 190 to 196 °C. The IC50 at Aurora2 (Aurora-A) was determined as 48 nM. Further, the IC50 at Aurora1 (Aurora-B) turned out to be 8 nM.
Compound `CCOC(=O)c1[nH]cc2c1NC1=C(C(=O)CCC1)C2c1ccc(Sc2nc3cc(Cl)c(Cl)cc3[nH]2)o1` (stereo not drawn) [Example 116, 9-[5-(5,6-Dichloro-1H-benzimidazol-2-ylsulfanyl)-furan-2-yl]-8-oxo-4,5,6,7,8,9-hexahydro-2H-pyrrolo[3,4-b]quinoline-3-carboxylic acid ethyl ester] had a melting point of 180 °C. The IC50 on Aurora2 (Aurora-A) is 54 nM. For the same compound, the IC50 on Aurora1 (Aurora-B) amounted to 6 nM.

The term IC50 denotes the concentration needed to halve the response being measured. In general, melting point refers to the temperature, or range, at which the solid turns liquid.
